In brackets after ≈: the same amount, converted by molar mass. Activity calls are given as the source filed them. The calls are words filed in the database; no cut-off is given here.
Legend:
[1] = test system: Athelia rolfsii; assay: Antifungal activity against Athelia rolfsii assessed as growth inhibition at 6.9 x 10^-2 M after 3 days by paper disk assay relative to control; format: functional; details: Agroathelia rolfsii, 72 h; read-out: GI
[2] = test system: Athelia rolfsii; assay: Antifungal activity against Athelia rolfsii assessed as mycelial growth inhibition at 246 ug/mL after 3 days; format: functional, organism-based; details: Agroathelia rolfsii
[3] = test system: Athelia rolfsii; assay: Antifungal activity against Athelia rolfsii assessed as growth inhibition after 3 days; format: functional; details: Agroathelia rolfsii, 72 h

SMILES: CC(=O)CCCc1cccc(=O)o1 [VIRIDEPYRONONE]
- inhibition of growth at 69000 µM [1]: 48%
- growth inhibition (GI) [2]: Active
- MIC [3]: 196 µg/mL (≈ 1090 µM)

Source: ChEMBL document CHEMBL3045774, “Viridepyronone, a new antifungal 6-substituted 2H-pyran-2-one produced by Trichoderma viride” (2003)
